The supplement of paper PMC10307832

Compound: CCN1CCC(CC1)N2C=C(N=N2)CNC3=CC4=C(C(=CN=C4C(=C3)Cl)C#N)NC5=CC(=C(C=C5)F)Cl [KIN001-266] + CC(C)C[C@H](NC(=O)[C@H](Cc1ccccc1)NC(=O)c1cnccn1)B(O)O [Bortezomib] (partner 0.002 µM)
Experiment: relative viability (nuclei count vs DMSO), 5 days (fraction); higher = more cells survive
Method in brief: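 Each reported value is a median over duplicate plates. It expresses relative viability: treated-well nuclei count divided by vehicle-well nuclei count. Lung cancer cell lines in 1536-well plates were dosed by pin tool a day after seeding, alone with one drug or with a fixed anchor-drug dose plus five library-drug doses (not always all listed) in √10 steps, and nuclei were counted after 5 days.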

Cell Line	relative viability (first compound 0.08 µM)	relative viability (first compound 0.253 µM)	relative viability (first compound 0.8 µM)	relative viability (first compound 2.53 µM)	relative viability (first compound 8 µM)
H3255	0.899	0.775	0.838	0.788	0.699
EPLC-272H	1.19	0.949	0.751	0.839	0.605
PC-3 [JPC-3]	0.786	0.846	0.813	0.736	0.764
EKVX	1.12	1	1.01	1.06	1.01
ChaGo-K-1	1.11	1.17	–	1.09	1.1
NCI-H23	1.14	1.1	1.04	0.916	0.642
EMC-BAC-2	1.07	1.11	1.02	1.04	1.04
LOU-NH91	0.499	0.497	0.428	0.513	0.443
LU99A	1.31	1.17	1.11	1.02	0.982
NCI-H460	1.01	1.18	1.16	0.988	1.06
201T	1.09	0.941	1.08	1.06	1.16
NCI-H2405	0.99	1	0.984	0.925	0.809
NCI-H1703	0.378	0.317	0.296	0.273	0.291
NCI-H1755	0.956	0.972	0.847	0.918	0.884
NCI-H2087	0.761	0.87	0.717	0.719	0.609
NCI-H2228	1.03	0.935	1.09	1.33	0.796
NCI-H727	0.843	0.893	0.889	0.864	0.514
NCI-H650	0.997	0.844	0.997	0.771	0.768
NCI-H520	0.633	0.677	0.535	0.544	0.675
EBC-1	0.566	0.502	0.477	0.446	0.364
NCI-H661	0.784	0.755	0.878	0.837	0.566
NCI-H1299	1.02	1.01	0.984	0.962	0.882
NCI-H1993	1.04	1.29	1.06	1.01	0.858

Cell Line	relative viability (first compound 0.08 µM)	relative viability (first compound 0.253 µM)	relative viability (first compound 0.8 µM)	relative viability (first compound 2.53 µM)	relative viability (first compound 8 µM)
NCI-H838	0.831	0.737	0.85	0.719	0.56
NCI-H1437	0.534	0.435	0.514	0.493	0.447
LCLC-103H	1.18	1.15	1.08	1.08	0.986
NCI-H441	0.603	0.811	0.478	0.457	0.554
SK-LU-1	1.39	1.14	1.31	1.12	1.04
BEN	0.899	0.698	0.885	0.909	0.921
LC-2-ad	0.954	0.948	1.02	1.03	0.956
COR-L23	0.966	0.994	0.927	0.857	0.777
NCI-H1650	0.241	0.203	0.191	0.214	0.19
RERF-LC-KJ	1.11	1.23	1.08	1.01	0.82
NCI-H1915	0.979	0.986	0.997	0.877	0.898
NCI-H596	0.919	1.17	1.05	1.04	0.947
IA-LM	0.838	0.729	0.94	0.736	0.674
NCI-H2009	1.02	1.06	1.09	0.95	0.658
NCI-H2126	1.16	1.12	1.15	1.13	1.14
LXF-289	0.954	0.987	0.95	0.972	1.03
NCI-H1563	0.951	0.982	0.846	0.855	0.809
HCC-44	0.944	0.867	0.815	0.852	0.864
PC-14	0.881	0.816	0.892	0.759	0.297
HOP-62	0.563	0.565	0.575	0.779	1.07
NCI-H1666	1.03	0.826	0.668	0.785	0.686
NCI-H1355	1.23	1.23	1.1	1.26	1.18
HCC-827	1.09	1.03	–	1.07	1.09

Cell Line	relative viability (first compound 0.08 µM)	relative viability (first compound 0.253 µM)	relative viability (first compound 0.8 µM)	relative viability (first compound 2.53 µM)	relative viability (first compound 8 µM)
HARA	1.07	1.09	1.16	1.07	1.04
HCC-366	1.04	1.06	0.996	0.998	1.01
NCI-H322M	1.16	1.43	1.34	1.23	1.18
NCI-H2347	1.16	1.03	0.905	0.858	0.611
NCI-H1975	0.373	0.462	0.404	0.336	0.336
UMC-11	0.703	0.543	0.71	0.638	0.738
ABC-1	0.269	0.344	0.346	0.288	0.274
A-427	1.06	1	0.955	0.982	0.817
LCLC-97TM1	0.679	0.595	0.489	0.731	0.337
HCC-15	1.01	1.04	0.868	0.864	0.662
NCI-H647	1	1.03	1.14	1.07	0.935
SW 1573	1.13	0.914	1.09	0.92	0.808
NCI-H1651	0.98	0.969	0.869	0.93	0.897
NCI-H1792	0.962	0.927	0.879	0.917	0.948
NCI-H2023	1.08	1.1	1.2	1.03	0.76
COR-L 105	0.886	0.884	0.719	0.768	0.602
NCI-H1734	1.07	0.842	0.822	0.805	0.768
NCI-H3122	0.996	1.03	1.03	0.969	0.974
CAL-12T	1.04	0.976	–	1.12	0.97
HCC-78	0.57	0.261	0.464	0.495	0.616
NCI-H2085	1.01	1.04	0.888	1.14	0.916
